How the values were obtained:
[1] = tested on: barnyardgrass; test: Test A pre-/postemergence herbicide test; type: in vivo, Echinochloa crus-galli
Method in brief: (§1)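 Directed soil spray to seeded pots (preemergence) or spray onto one- to two-leaf seedlings 2–10 cm tall (postemergence); loam/sand substrate throughout. Evaluated visually after about 10 days against untreated plants, 0 = no effect, 100 = complete control.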

[2] = tested on: kochia; test: Test A pre-/postemergence herbicide test; type: in vivo, Kochia scoparia
Method in brief: as §1

[3] = tested on: blackgrass; test: Test A postemergence herbicide test; type: in vivo, Alopecurus myosuroides
Method in brief: (§2)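 Plants at the one- to two-leaf stage, 2–10 cm tall, grown in loam/sand pots, received postemergence sprays of the test chemicals. After about 10 days in the greenhouse, injury was scored visually against untreated controls on a 0–100 scale (0 none, 100 complete control).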

[4] = tested on: ragweed; test: Test A pre-/postemergence herbicide test; type: in vivo, Ambrosia elatior
Method in brief: as §1

[5] = tested on: pigweed; test: Test A pre-/postemergence herbicide test; type: in vivo, Amaranthus retroflexus
Method in brief: as §1

[6] = tested on: galium; test: Test A postemergence herbicide test; type: in vivo, Galium aparine
Method in brief: as §2

[7] = tested on: barnyardgrass; test: Test B flooded paddy test; type: in vivo, Echinochloa crus-galli; details: Flood, scale of 0 to 100 where 0 is no effect and 100 is complete control
Method in brief: (§3)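 First, plants reach the 2-leaf stage; next, pots are flooded to 3 cm and compound is delivered into the water; finally, after 13 to 15 greenhouse days at constant depth, injury is graded visually from 0 to 100 against controls.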

[8] = tested on: giant foxtail; test: Test A pre-/postemergence herbicide test; type: in vivo, Setaria faberii
Method in brief: as §1

[9] = tested on: ryegrass, Italian; test: Test A pre-/postemergence herbicide test; type: in vivo, Lolium multiflorum
Method in brief: as §1

[10] = tested on: wheat; test: Test A pre-/postemergence herbicide test; type: in vivo, Triticum aestivum; details: Postemergence
Method in brief: as §1

[11] = tested on: sedge, umbrella; test: Test B flooded paddy test; type: in vivo, Cyperus difformis; details: Flood, scale of 0 to 100 where 0 is no effect and 100 is complete control
Method in brief: as §3

[12] = tested on: rice; test: Test B flooded paddy test; type: in vivo, Oryza sativa; details: Flood, scale of 0 to 100 where 0 is no effect and 100 is complete control
Method in brief: as §3

[13] = tested on: ducksalad; test: Test B flooded paddy test; type: in vivo, Heteranthera limosa; details: Flood, scale of 0 to 100 where 0 is no effect and 100 is complete control
Method in brief: as §3

[14] = tested on: corn; test: Test A pre-/postemergence herbicide test; type: in vivo, Zea mays; details: Postemergence
Method in brief: as §1

[15] = 125 g ai/ha, visual rating, 0 to 100 scale, 0 no effect, 100 complete control, approximately 10 days, preemergence
[16] = Postemergence, 125 g ai/ha, 0 to 100 scale, 0 no effect, 100 complete control
[17] = preemergence, 500 g ai/ha, 0 to 100 scale (0 no effect, 100 complete control)
[18] = preemergence, 500 g ai/ha, 0 to 100 scale
[19] = 125 g ai/ha, 0 to 100 scale, 0 no effect, 100 complete control
[20] = Postemergence, 125 g ai/ha, visual rating on 0 to 100 scale (0 no effect, 100 complete control), approx. 10 days
[21] = Postemergence, 500 g ai/ha, 0 to 100 scale (0 no effect, 100 complete control)
[22] = Preemergence, 125 g ai/ha, 0 to 100 scale where 0 is no effect and 100 is complete control
[23] = Preemergence, 500 g ai/ha, visual rating on 0 to 100 scale (0 no effect, 100 complete control)
[24] = 125 g ai/ha, visual rating on 0 to 100 scale (0 no effect, 100 complete control), approx. 10 days
[25] = 500 g ai/ha, 0 to 100 scale (0 no effect, 100 complete control)
[26] = Preemergence, 125 g ai/ha, visual rating on 0 to 100 scale (0 no effect, 100 complete control)
[27] = Postemergence, 125 g ai/ha, 0 to 100 scale, 0 is no effect, 100 is complete control
[28] = preemergence, 500 g ai/ha, 0 to 100 scale, 0 is no effect and 100 is complete control
[29] = 125 g ai/ha, 0 to 100 scale, 0 is no effect, 100 is complete control

Cc1cc(C2CNC(=O)C2C(=O)Nc2ccccc2F)ccc1F (racemic) [Compound 139]
Plant response rating, Barnyardgrass [1, 15]: 70
Plant response rating, Barnyardgrass [1, 16]: 80
Barnyardgrass plant response rating (0 to 100 scale, 0 is no effect, 100 is complete control) ([1]; Postemergence, 500 g ai/ha): 90
Plant response rating, Barnyardgrass [1, 17]: 90
Plant response rating, Kochia [2, 15]: 0
Plant response rating, Kochia [2, 16]: 0
Kochia plant response rating (0 to 100 scale, 0 is no effect, 100 is complete control) ([2]; Postemergence, 500 g ai/ha): 0
Plant response rating, Kochia [2, 18]: 30
Plant response rating, Blackgrass [3, 19]: 0
Blackgrass plant response rating (0 to 100 scale, 0 is no effect, 100 is complete control) ([3]; 500 g ai/ha): 20
Plant response rating, Ragweed [4, 15]: 0
Plant response rating, Ragweed [4, 16]: 0
Ragweed plant response rating (0 to 100 scale, 0 is no effect, 100 is complete control) ([4]; Postemergence, 500 g ai/ha): 0
Plant response rating, Ragweed [4, 18]: 0
Plant response rating, Pigweed [5, 15]: 0
Plant response rating, Pigweed [5, 16]: 0
Pigweed plant response rating (0 to 100 scale, 0 is no effect, 100 is complete control) ([5]; Postemergence, 500 g ai/ha): 0
Plant response rating, Pigweed [5, 18]: 20
Plant response rating, Galium [6, 19]: 0
Galium plant response rating (0 to 100 scale, 0 is no effect, 100 is complete control) ([6]; 500 g ai/ha): 30
Plant response rating, Barnyardgrass ([7]; 500 g ai/ha): 60
Plant response rating, Foxtail, Giant [8, 15]: 50
Plant response rating, Foxtail, Giant [8, 16]: 30
Foxtail, Giant plant response rating (0 to 100 scale, 0 is no effect, 100 is complete control) ([8]; Postemergence, 500 g ai/ha): 30
Plant response rating, Foxtail, Giant [8, 18]: 90
Plant response rating, Ryegrass, Italian [9, 15]: 0
Plant response rating, Ryegrass, Italian [9, 16]: 0
Ryegrass, Italian plant response rating (0 to 100 scale, 0 is no effect, 100 is complete control) ([9]; Postemergence, 500 g ai/ha): 0
Plant response rating, Ryegrass, Italian [9, 18]: 0
Plant response rating, Wheat [10, 19]: 0
Wheat plant response rating (0 to 100 scale, 0 is no effect, 100 is complete control) ([10]; 500 g ai/ha): 0
Plant response rating, Sedge, Umbrella ([11]; 500 g ai/ha): 0
Plant response rating, Rice ([12]; 500 g ai/ha): 0
Plant response rating, Ducksalad ([13]; 500 g ai/ha): 100
Plant response rating, Corn [14, 19]: 0
Corn plant response rating (0 to 100 scale, 0 is no effect, 100 is complete control) ([14]; 500 g ai/ha): 0

O=C1NCC(c2cccc(Br)c2)C1C(=O)Nc1ccccc1Cl (stereo not drawn) [Compound 311]
Plant response rating, Barnyardgrass [1, 20]: 60
Plant response rating, Barnyardgrass [1, 21]: 80
Plant response rating, Barnyardgrass [1, 22]: 70
Barnyardgrass plant response rating [1, 23]: 80
Plant response rating, Kochia [2, 20]: 0
Plant response rating, Kochia [2, 21]: 0
Plant response rating, Kochia [2, 22]: 0
Kochia plant response rating [2, 23]: 0
Plant response rating, Blackgrass [3, 24]: 0
Plant response rating, Blackgrass [3, 25]: 30
Plant response rating, Ragweed [4, 20]: 0
Plant response rating, Ragweed [4, 21]: 0
Plant response rating, Ragweed [4, 22]: 0
Ragweed plant response rating [4, 23]: 0
Plant response rating, Pigweed [5, 20]: 0
Plant response rating, Pigweed [5, 21]: 0
Plant response rating, Pigweed [5, 22]: 0
Pigweed plant response rating [5, 23]: 0
Plant response rating, Galium [6, 24]: 0
Plant response rating, Galium [6, 25]: 0
Plant response rating, Barnyardgrass ([7]; 500 g ai/ha): 50
Plant response rating, Foxtail, Giant [8, 20]: 60
Plant response rating, Foxtail, Giant [8, 21]: 70
Plant response rating, Foxtail, Giant [8, 22]: 80
Foxtail, Giant plant response rating [8, 23]: 90
Plant response rating, Ryegrass, Italian [9, 20]: 0
Plant response rating, Ryegrass, Italian [9, 21]: 0
Plant response rating, Ryegrass, Italian [9, 22]: 0
Ryegrass, Italian plant response rating [9, 23]: 0
Plant response rating, Wheat [10, 24]: 0
Plant response rating, Wheat [10, 25]: 0
Plant response rating, Sedge, Umbrella ([11]; 500 g ai/ha): 0
Plant response rating, Rice ([12]; 500 g ai/ha): 0
Plant response rating, Ducksalad ([13]; 500 g ai/ha): 98
Plant response rating, Corn [14, 24]: 0
Plant response rating, Corn [14, 25]: 0

O=C1NCC(c2cccc(C(F)(F)F)c2)C1C(=O)Nc1ccccn1 (racemic) [Compound 110]
Plant response rating, Barnyardgrass [1, 16]: 50
Plant response rating, Barnyardgrass [1, 21]: 90
Barnyardgrass plant response rating [1, 26]: 70
Plant response rating, Barnyardgrass [1, 17]: 90
Plant response rating, Kochia [2, 16]: 0
Plant response rating, Kochia [2, 21]: 0
Kochia plant response rating [2, 26]: 0
Plant response rating, Kochia [2, 18]: 0
Plant response rating, Blackgrass [3, 19]: 0
Plant response rating, Blackgrass [3, 25]: 70
Plant response rating, Ragweed [4, 16]: 0
Plant response rating, Ragweed [4, 21]: 0
Ragweed plant response rating [4, 26]: 0
Plant response rating, Ragweed [4, 18]: 0
Plant response rating, Pigweed [5, 16]: 0
Plant response rating, Pigweed [5, 21]: 0
Pigweed plant response rating [5, 26]: 0
Plant response rating, Pigweed [5, 18]: 0
Plant response rating, Galium [6, 19]: 20
Plant response rating, Galium [6, 25]: 40
Plant response rating, Barnyardgrass ([7]; 1000 g ai/ha): 0
Plant response rating, Foxtail, Giant [8, 16]: 80
Plant response rating, Foxtail, Giant [8, 21]: 90
Foxtail, Giant plant response rating [8, 26]: 60
Plant response rating, Foxtail, Giant [8, 18]: 90
Plant response rating, Ryegrass, Italian [9, 16]: 20
Plant response rating, Ryegrass, Italian [9, 21]: 40
Ryegrass, Italian plant response rating [9, 26]: 0
Plant response rating, Ryegrass, Italian [9, 18]: 0
Plant response rating, Wheat [10, 19]: 0
Plant response rating, Wheat [10, 25]: 20
Plant response rating, Sedge, Umbrella ([11]; 1000 g ai/ha): 50
Plant response rating, Rice ([12]; 1000 g ai/ha): 0
Plant response rating, Ducksalad ([13]; 1000 g ai/ha): 95
Plant response rating, Corn [14, 19]: 0
Plant response rating, Corn [14, 25]: 20

O=C1NCC(c2cccc(S(F)(F)(F)(F)F)c2)C1C(=O)Nc1cccc(F)c1F (stereo not drawn) [Compound 214]
Plant response rating, Barnyardgrass [1, 15]: 70
Plant response rating, Barnyardgrass [1, 27]: 60
Barnyardgrass plant response rating (0 to 100 scale, 0 is no effect, 100 is complete control) ([1]; Postemergence, 500 g ai/ha): 70
Plant response rating, Barnyardgrass [1, 28]: 80
Plant response rating, Kochia [2, 15]: 0
Plant response rating, Kochia [2, 27]: 0
Kochia plant response rating (0 to 100 scale, 0 is no effect, 100 is complete control) ([2]; Postemergence, 500 g ai/ha): 40
Plant response rating, Kochia [2, 28]: 80
Plant response rating, Blackgrass [3, 29]: 40
Blackgrass plant response rating (0 to 100 scale, 0 is no effect, 100 is complete control) ([3]; 500 g ai/ha): 70
Plant response rating, Ragweed [4, 15]: 0
Plant response rating, Ragweed [4, 27]: 0
Ragweed plant response rating (0 to 100 scale, 0 is no effect, 100 is complete control) ([4]; Postemergence, 500 g ai/ha): 0
Plant response rating, Ragweed [4, 28]: 0
Plant response rating, Pigweed [5, 15]: 0
Plant response rating, Pigweed [5, 27]: 0
Pigweed plant response rating (0 to 100 scale, 0 is no effect, 100 is complete control) ([5]; Postemergence, 500 g ai/ha): 50
Plant response rating, Pigweed [5, 28]: 70
Plant response rating, Galium [6, 29]: 40
Galium plant response rating (0 to 100 scale, 0 is no effect, 100 is complete control) ([6]; 500 g ai/ha): 70
Plant response rating, Barnyardgrass ([7]; 1000 g ai/ha): 75
Plant response rating, Foxtail, Giant [8, 15]: 80
Plant response rating, Foxtail, Giant [8, 27]: 80
Foxtail, Giant plant response rating (0 to 100 scale, 0 is no effect, 100 is complete control) ([8]; Postemergence, 500 g ai/ha): 90
Plant response rating, Foxtail, Giant [8, 28]: 90
Plant response rating, Ryegrass, Italian [9, 15]: 0
Plant response rating, Ryegrass, Italian [9, 27]: 10
Ryegrass, Italian plant response rating (0 to 100 scale, 0 is no effect, 100 is complete control) ([9]; Postemergence, 500 g ai/ha): 30
Plant response rating, Ryegrass, Italian [9, 28]: 0
Plant response rating, Wheat [10, 29]: 0
Wheat plant response rating (0 to 100 scale, 0 is no effect, 100 is complete control) ([10]; 500 g ai/ha): 50
Plant response rating, Sedge, Umbrella ([11]; 1000 g ai/ha): 0
Plant response rating, Rice ([12]; 1000 g ai/ha): 20
Plant response rating, Ducksalad ([13]; 1000 g ai/ha): 90
Plant response rating, Corn [14, 29]: 30
Corn plant response rating (0 to 100 scale, 0 is no effect, 100 is complete control) ([14]; 500 g ai/ha): 50

Reference: patent US10294202B2, “Pyrrolidinones as herbicides” (FMC Corporation, priority 2013, dated 2019)
